Results from US20260232821A1, “ALBUMIN CONJUGATE, METHOD FOR PRODUCING SAME, AND COMPOSITION FOR TARGETING, DIAGNOSING, OR TREATING CANCER COMPRISING SAME” (KYTECBIO CO., LTD., priority 2023, published 2026).

Legend:
albumin (HSA) = albumin (HSA) (Homo sapiens, UniProt P02768); experiment: Binding ability evaluation: dissociation constant from fluorescence change with increasing albumin; details: 100 nM boron-containing compound, 95 vol % PBS buffer and 5 vol % DMSO, stirred 2 hours, fluorescence at 530 nm
Protocol: 100 nM boron-containing compound B1 and albumin (HSA) were mixed in 95 vol % PBS buffer and 5 vol % dimethyl sulfoxide (DMSO) and stirred for 2 hours. The change in fluorescence intensity (F.I.) was measured while increasing the concentration of the albumin, and the dissociation constant (Kd) calculated based thereon is shown in FIG. 2.
For example, 0:1 represents the case where 100 nM albumin (HSA) was used without using a boron-containing compound, 1:0 represents the case where 100 nM boron-containing compound B1 was used and no albumin (HSA) was used, 1:2 represents the case where 100 nM boron-containing compound B1 and 200 nM albumin (HSA) were used, and 1:16 represents the case where 100 nM boron-containing compound B1 and 1600 nM albumin (HSA) were used.
The dissociation constants (Kd) of boron-containing compounds B2 to B5 were calculated in the same method as used to produce boron-containing compound B1.

[1] = Evaluation of ROS production according to lysine concentration; details: 10 μM compound with about 1.0 mM monomeric lysine, PBS pH 7.4, light of about 530 nm
Protocol: • i) 1.0 mM lysine (hereinafter, Lys) was mixed in PBS buffer solution (pH 7.4) and irradiated with light of about 530 nm. The fluorescence generated over time was measured using a Scinco FS-2, and results thereof are shown in FIG. 7A. • ii) The result of mixing 10 μM boron-containing compound B3 instead of the 1.0 mM lysine (Lys) is shown in FIG. 7B, iii) the result of mixing 10 μM boron-containing compound B3 and 0.1 mM lysine (Lys) instead of the 1.0 mM lysine (Lys) is shown in FIG. 7C, and iv) the result of mixing 10 μM boron-containing compound B3 and 1.0 mM lysine (Lys) instead of the 1.0 mM lysine (Lys) is shown in FIG. 7D.

albumin (HSA), sequence (P02768 25-609): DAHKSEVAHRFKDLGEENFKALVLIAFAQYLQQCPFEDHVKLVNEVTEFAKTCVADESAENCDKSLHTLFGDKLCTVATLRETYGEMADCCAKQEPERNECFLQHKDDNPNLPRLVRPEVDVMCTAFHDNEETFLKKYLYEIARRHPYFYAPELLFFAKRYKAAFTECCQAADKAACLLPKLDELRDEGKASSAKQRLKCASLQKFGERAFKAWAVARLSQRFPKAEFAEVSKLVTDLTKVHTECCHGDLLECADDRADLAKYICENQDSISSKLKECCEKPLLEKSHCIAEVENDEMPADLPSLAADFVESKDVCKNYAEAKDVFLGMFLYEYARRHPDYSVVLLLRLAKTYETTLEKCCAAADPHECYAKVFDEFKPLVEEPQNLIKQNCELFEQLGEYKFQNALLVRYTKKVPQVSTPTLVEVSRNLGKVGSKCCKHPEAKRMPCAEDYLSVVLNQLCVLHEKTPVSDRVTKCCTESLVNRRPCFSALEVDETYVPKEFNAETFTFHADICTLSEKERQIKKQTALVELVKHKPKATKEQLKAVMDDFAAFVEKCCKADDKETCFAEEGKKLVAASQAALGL

Row | SMILES | Kd (albumin (HSA)) [nM] | reactive oxygen species generated when mixed with lysine [1]
1 | O=Cc1cc2ccccc2cc1NCc1ccccc1B(O)O [B3] | 2480 | relatively large amount of reactive oxygen species is generated
2 | O=Cc1cc(Br)ccc1NCc1ccccc1B(O)O [B2] | 383 | –
3 | O=C(c1ccccc1)c1ccccc1NCc1ccccc1B(O)O [B4] | 2220 | –
4 | O=Cc1cc2c(cc1NCc1ccccc1B(O)O)OCO2 [B5] | 571 | –
5 | O=Cc1ccccc1NCc1ccccc1B(O)O [B1] | 185 | –
